Source: patent US12435044B2, “Pyridazinone herbicides and pyridazinone intermediates used to prepare a herbicide” (FMC Corporation, priority 2018, dated 2025)

What was measured:
Assay type in all cases: in vivo
[1] = tested on: crabgrass, large (Digitaria sanguinalis); assay: Test E pre-/postemergence greenhouse test
Description: (§1) Seeds of plant species selected from corn (Zea mays), soybean (Glycine max), velvetleaf (Abutilon theophrasti), lambsquarters (Chenopodium album), poinsettia, wild (Euphorbia heterophylla), pigweed, palmer (Amaranthus palmeri), waterhemp (common waterhemp, Amaranthus rudis), surinam grass (Brachiaria decumbens), crabgrass, large (Digitaria sanguinalis), crabgrass, Brazil (Digitaria horizontalis), panicum, fall (Panicum dichotomiflorum), foxtail, giant (Setaria faberii), foxtail, green (Setaria viridis), goosegrass (Eleusine indica), johnsongrass (Sorghum halepense), ragweed (common ragweed, Ambrosia elatior), barnyardgrass (Echinochloa crus-galli), sandbur (southern sandbur, Cenchrus echinatus), arrowleaf sida (Sida rhombifolia), ryegrass, Italian (Lolium multiflorum), dayflower, VA (Virginia (VA) dayflower, Commelina virginica), field bindweed (Convolvulus arvensis), morningglory (Ipomoea coccinea), horseweed (Conyza canadensis), kochia (Kochia scoparia), nutsedge, yellow (Cyperus esculentus) and hairy beggarticks (Bidenspilosa), were planted into a silt loam soil and treated preemergence with test chemicals formulated in a non-phytotoxic solvent mixture which included a surfactant.
(§2) At the same time, plants selected from these crop and weed species and also waterhemp_RES1, (ALS & Triazine resistant common waterhemp, Amaranthus rudis), and waterhemp_RES2, (ALS & HPPD resistant common waterhemp, Amaranthus rudis) were planted in pots containing Redi-Earth® planting medium (Scotts Company, 14111 Scottslawn Road, Marysville, Ohio 43041) comprising spaghnum peat moss, vermiculite, wetting agent and starter nutrients were treated with postemergence applications of test chemicals formulated in the same manner. Plants ranged in height from 2 to 18 cm for postemergence treatments (1- to 4-leaf stage). Treated plants and controls were maintained in a greenhouse for 14 to 21 d, after which time all species were compared to controls and visually evaluated. Plant response ratings, summarized in Table E, are based on a scale of 0 to 100 where 0 is no effect and 100 is complete control. A dash (-) response means no test result.

[2] = tested on: foxtail, giant (Setaria faberii); assay: Test E pre-/postemergence greenhouse test
Description: as §1, §2

[3] = tested on: panicum, fall (Panicum dichotomiflorum); assay: Test E pre-/postemergence greenhouse test
Description: as §1, §2

[4] = tested on: pigweed, palmer (Amaranthus palmeri); assay: Test E pre-/postemergence greenhouse test
Description: as §1, §2

[5] = tested on: surinam grass (Brachiaria decumbens); assay: Test E pre-/postemergence greenhouse test
Description: as §1, §2

[6] = tested on: velvetleaf (Abutilon theophrasti); assay: Test E pre-/postemergence greenhouse test
Description: as §1, §2

[7] = tested on: waterhemp (common waterhemp, Amaranthus rudis); assay: Test E pre-/postemergence greenhouse test
Description: as §1, §2

[8] = tested on: redstem (purple redstem, Ammannia coccinea); assay: Test F flooded paddy test; conditions: Flood, after 21 d
Description: (§3) Three plastic pots (ca. 16-cm diameter) per rate were partially filled with sterilized Tama silt loam soil comprising a 35:50:15 ratio of sand, silt and clay and 2.6% organic matter. Separate plantings for each of the three pots were as follows. Seeds from the U.S. of monochoria (Monochoria vaginalis), sedge, umbrella (small-flower umbrella sedge, Cyperus difformis) and redstem (purple redstem, Ammannia coccinea), were planted into one 16-cm pot for each rate. Seeds from the U.S. of rice flatsedge (Cyperus iria), sprangletop, Brdd. (bearded sprangletop, Leptochloa fascicularis), one stand of 9 or 10 water seeded rice seedlings (Rice, W. S. Jap, Oryza sativa cv. ‘Japonica-M202’ or Rice, W. S. Ind, ‘Indica’), and two stands of 3 or 4 transplanted rice seedlings (Oryza sativa cv. ‘Japonica-M202’) were planted into one 16-cm pot for each rate. Seeds from the U.S. of barnyardgrass (Echinochloa crus-galli), and late watergrass (Echinochloa oryzicola) were planted into one 16-cm pot for each rate.
(§4) Plantings were sequential so that crop and weed species were at the 2.0 to 2.5-leaf stage at time of treatment.
(§5) Potted plants were grown in a greenhouse with day/night temperature settings of 30/27° C., and supplemental balanced lighting was provided to maintain a 16-hour photoperiod. Test pots were maintained in the greenhouse until test completion.
(§6) At time of treatment, test pots were flooded to 3 cm above the soil surface, treated by application of test compounds directly to the paddy water, and then maintained at that water depth for the duration of the test. Effects of treatments on rice and weeds were visually evaluated by comparison to untreated controls after 21 d. Plant response ratings, summarized in Table F, are based on a scale of 0 to 100 where 0 is no effect and 100 is complete control. A dash (-) response means no test result.

[9] = tested on: rice flatsedge (Cyperus iria); assay: Test F flooded paddy test; conditions: Flood, after 21 d
Description: as §3, §4, §5, §6

[10] = tested on: sedge, umbrella (small-flower umbrella sedge, Cyperus difformis); assay: Test F flooded paddy test; conditions: Flood, after 21 d
Description: as §3, §4, §5, §6

[11] = tested on: sprangletop, Brdd. (bearded sprangletop, Leptochloa fascicularis); assay: Test F flooded paddy test; conditions: Flood, after 21 d
Description: as §3, §4, §5, §6

## Cc1ccc2ccc(C)c(-c3c(O)c(Cl)nn(C)c3=O)c2c1 [Cpd. No. 20, 6-chloro-4-(2,7-dimethyl-1-naphthalenyl)-5-hydroxy-2-methyl-3(2H)-pyridazinone]
[1]; Preemergence, 16 g ai/ha
  Plant response rating, Crabgrass, Large: 65
[1]; Preemergence, 31 g ai/ha
  Plant response rating, Crabgrass, Large: 65
[1]; Preemergence, 62 g ai/ha
  Plant response rating, Crabgrass, Large: 75
[1]; Preemergence, 125 g ai/ha
  Plant response rating, Crabgrass, Large: 80
[2]; Preemergence, 16 g ai/ha
  Plant response rating, Foxtail, Giant: 10
[2]; Preemergence, 31 g ai/ha
  Plant response rating, Foxtail, Giant: 60
[2]; Preemergence, 62 g ai/ha
  Plant response rating, Foxtail, Giant: 90
[2]; Preemergence, 125 g ai/ha
  Plant response rating, Foxtail, Giant: 98
[3]; Postemergence, 16 g ai/ha
  Plant response rating, Panicum, Fall: 70
[3]; Postemergence, 31 g ai/ha
  Plant response rating, Panicum, Fall: 90
[3]; Postemergence, 62 g ai/ha
  Plant response rating, Panicum, Fall: 90
[3]; Postemergence, 125 g ai/ha
  Plant response rating, Panicum, Fall: 95
[3]; Preemergence, 16 g ai/ha
  Plant response rating, Panicum, Fall: 75
[3]; Preemergence, 31 g ai/ha
  Plant response rating, Panicum, Fall: 98
[3]; Preemergence, 62 g ai/ha
  Plant response rating, Panicum, Fall: 98
[3]; Preemergence, 125 g ai/ha
  Plant response rating, Panicum, Fall: 100
[4]; Postemergence, 16 g ai/ha
  Plant response rating, Pigweed, Palmer: 60
[4]; Postemergence, 31 g ai/ha
  Plant response rating, Pigweed, Palmer: 65
[4]; Postemergence, 62 g ai/ha
  Plant response rating, Pigweed, Palmer: 70
[4]; Postemergence, 125 g ai/ha
  Plant response rating, Pigweed, Palmer: 60
[4]; Preemergence, 16 g ai/ha
  Plant response rating, Pigweed, Palmer: 20
[4]; Preemergence, 31 g ai/ha
  Plant response rating, Pigweed, Palmer: 35
[4]; Preemergence, 62 g ai/ha
  Plant response rating, Pigweed, Palmer: 95
[4]; Preemergence, 125 g ai/ha
  Plant response rating, Pigweed, Palmer: 98
[5]; Preemergence, 16 g ai/ha
  Plant response rating, Surinam Grass: 35
[5]; Preemergence, 31 g ai/ha
  Plant response rating, Surinam Grass: 80
[5]; Preemergence, 62 g ai/ha
  Plant response rating, Surinam Grass: 90
[5]; Preemergence, 125 g ai/ha
  Plant response rating, Surinam Grass: 100
[6]; Preemergence, 16 g ai/ha
  Plant response rating, Velvetleaf: 50
[6]; Preemergence, 31 g ai/ha
  Plant response rating, Velvetleaf: 80
[6]; Preemergence, 62 g ai/ha
  Plant response rating, Velvetleaf: 90
[6]; Preemergence, 125 g ai/ha
  Plant response rating, Velvetleaf: 100
[7]; Postemergence, 16 g ai/ha
  Plant response rating, Waterhemp: 75
[7]; Postemergence, 31 g ai/ha
  Plant response rating, Waterhemp: 75
[7]; Postemergence, 62 g ai/ha
  Plant response rating, Waterhemp: 95
[7]; Postemergence, 125 g ai/ha
  Plant response rating, Waterhemp: 90
[7]; Preemergence, 16 g ai/ha
  Plant response rating, Waterhemp: 60
[7]; Preemergence, 31 g ai/ha
  Plant response rating, Waterhemp: 70
[7]; Preemergence, 62 g ai/ha
  Plant response rating, Waterhemp: 98
[7]; Preemergence, 125 g ai/ha
  Plant response rating, Waterhemp: 100
[8]; 31 g ai/ha
  Plant response rating (0 to 100 scale): 0
[8]; 62 g ai/ha
  Plant response rating (0 to 100 scale): 0
[8]; 125 g ai/ha
  Plant response rating (0 to 100 scale): 92
[8]; 250 g ai/ha
  Plant response rating (0 to 100 scale): 99
[9]; 31 g ai/ha
  Plant response rating (0 to 100 scale): 70
[9]; 62 g ai/ha
  Plant response rating (0 to 100 scale): 85
[9]; 125 g ai/ha
  Plant response rating (0 to 100 scale): 97
[9]; 250 g ai/ha
  Plant response rating (0 to 100 scale): 100
[10]; 31 g ai/ha
  Plant response rating (0 to 100 scale): 0
[10]; 62 g ai/ha
  Plant response rating (0 to 100 scale): 60
[10]; 125 g ai/ha
  Plant response rating (0 to 100 scale): 95
[10]; 250 g ai/ha
  Plant response rating (0 to 100 scale): 100

## Cc1cc(Cl)c2ccccc2c1-c1c(O)c(Cl)nn(C)c1=O [Cpd. No. 65]
[1]; Postemergence, 16 g ai/ha
  Plant response rating, Crabgrass, Large: 10
[1]; Postemergence, 31 g ai/ha
  Plant response rating, Crabgrass, Large: 13
[1]; Postemergence, 62 g ai/ha
  Plant response rating, Crabgrass, Large: 30
[1]; Postemergence, 125 g ai/ha
  Plant response rating, Crabgrass, Large: 35
[1]; Preemergence, 16 g ai/ha
  Plant response rating, Crabgrass, Large: 45
[1]; Preemergence, 31 g ai/ha
  Plant response rating, Crabgrass, Large: 18
[1]; Preemergence, 62 g ai/ha
  Plant response rating, Crabgrass, Large: 38
[1]; Preemergence, 125 g ai/ha
  Plant response rating, Crabgrass, Large: 48
[2]; Postemergence, 16 g ai/ha
  Plant response rating, Foxtail, Giant: 70
[2]; Postemergence, 31 g ai/ha
  Plant response rating, Foxtail, Giant: 88
[2]; Postemergence, 62 g ai/ha
  Plant response rating, Foxtail, Giant: 90
[2]; Postemergence, 125 g ai/ha
  Plant response rating, Foxtail, Giant: 95
[2]; Preemergence, 16 g ai/ha
  Plant response rating, Foxtail, Giant: 5
[2]; Preemergence, 31 g ai/ha
  Plant response rating, Foxtail, Giant: 78
[2]; Preemergence, 62 g ai/ha
  Plant response rating, Foxtail, Giant: 90
[2]; Preemergence, 125 g ai/ha
  Plant response rating, Foxtail, Giant: 100
[3]; Postemergence, 16 g ai/ha
  Plant response rating, Panicum, Fall: 80
[3]; Postemergence, 31 g ai/ha
  Plant response rating, Panicum, Fall: 88
[3]; Postemergence, 62 g ai/ha
  Plant response rating, Panicum, Fall: 93
[3]; Postemergence, 125 g ai/ha
  Plant response rating, Panicum, Fall: 93
[3]; Preemergence, 16 g ai/ha
  Plant response rating, Panicum, Fall: 75
[3]; Preemergence, 31 g ai/ha
  Plant response rating, Panicum, Fall: 99
[3]; Preemergence, 62 g ai/ha
  Plant response rating, Panicum, Fall: 100
[3]; Preemergence, 125 g ai/ha
  Plant response rating, Panicum, Fall: 99
[4]; Postemergence, 16 g ai/ha
  Plant response rating, Pigweed, Palmer: 35
[4]; Postemergence, 31 g ai/ha
  Plant response rating, Pigweed, Palmer: 43
[4]; Postemergence, 62 g ai/ha
  Plant response rating, Pigweed, Palmer: 68
[4]; Postemergence, 125 g ai/ha
  Plant response rating, Pigweed, Palmer: 55
[4]; Preemergence, 16 g ai/ha
  Plant response rating, Pigweed, Palmer: 40
[4]; Preemergence, 31 g ai/ha
  Plant response rating, Pigweed, Palmer: 58
[4]; Preemergence, 62 g ai/ha
  Plant response rating, Pigweed, Palmer: 80
[4]; Preemergence, 125 g ai/ha
  Plant response rating, Pigweed, Palmer: 90
[5]; Postemergence, 16 g ai/ha
  Plant response rating, Surinam Grass: 73
[5]; Postemergence, 31 g ai/ha
  Plant response rating, Surinam Grass: 78
[5]; Postemergence, 62 g ai/ha
  Plant response rating, Surinam Grass: 85
[5]; Postemergence, 125 g ai/ha
  Plant response rating, Surinam Grass: 93
[5]; Preemergence, 16 g ai/ha
  Plant response rating, Surinam Grass: 8
[5]; Preemergence, 31 g ai/ha
  Plant response rating, Surinam Grass: 92
[5]; Preemergence, 62 g ai/ha
  Plant response rating, Surinam Grass: 85
[5]; Preemergence, 125 g ai/ha
  Plant response rating, Surinam Grass: 100
[6]; Postemergence, 16 g ai/ha
  Plant response rating, Velvetleaf: 75
[6]; Postemergence, 31 g ai/ha
  Plant response rating, Velvetleaf: 90
[6]; Postemergence, 62 g ai/ha
  Plant response rating, Velvetleaf: 85
[6]; Postemergence, 125 g ai/ha
  Plant response rating, Velvetleaf: 90
[6]; Preemergence, 16 g ai/ha
  Plant response rating, Velvetleaf: 75
[6]; Preemergence, 31 g ai/ha
  Plant response rating, Velvetleaf: 100
[6]; Preemergence, 62 g ai/ha
  Plant response rating, Velvetleaf: 100
[6]; Preemergence, 125 g ai/ha
  Plant response rating, Velvetleaf: 100
[7]; Postemergence, 16 g ai/ha
  Plant response rating, Waterhemp: 83
[7]; Postemergence, 31 g ai/ha
  Plant response rating, Waterhemp: 88
[7]; Postemergence, 62 g ai/ha
  Plant response rating, Waterhemp: 99
[7]; Postemergence, 125 g ai/ha
  Plant response rating, Waterhemp: 97
[7]; Preemergence, 16 g ai/ha
  Plant response rating, Waterhemp: 75
[7]; Preemergence, 31 g ai/ha
  Plant response rating, Waterhemp: 90
[7]; Preemergence, 62 g ai/ha
  Plant response rating, Waterhemp: 99
[7]; Preemergence, 125 g ai/ha
  Plant response rating, Waterhemp: 99
[11]; 64 g ai/ha
  Plant response rating (0 to 100 scale): 98
[11]; 125 g ai/ha
  Plant response rating (0 to 100 scale): 100
